According to patent US10718782B2, “Method of evaluating cellulite and method of evaluating cellulite-effective drug using fibulin-3 and/or sarcoglycan gamma as an indicator” (Shiseido Company, Ltd., priority 2012, dated 2020):

Legend:
[1] = test system: fibulin-3; experiment: Addition of known cellulite-improving drugs to cultured fibroblasts, fibulin-3 expression by quantitative PCR; assay type: cell-based; details: fibroblasts derived from human skin tissue, serum-free medium, 24 hours; conjugated linoleic acid 0.001% and 0.01% v/v, nicotinamide 0.0005% and 0.005% v/v; mRNA vs control
Protocol: (§1) Quantitative RT-PCR was carried out by using synthesized cDNA as the template, and further by using a reaction reagent LightCycler (registered trademark) FastStart DNA MasterPlus SYBR Green (Roche), and a reaction instrument LightCycler (Roche) or AB 7900 HT Fast Real-Time PCR System (Applied Biosystems). The condition for composition was as described in Roche's protocol. The annealing temperature of the primers was set at 60° C., and quantitated by using ΔΔCt method.
(§2) Fibroblasts derived from human skin tissue were plated in a 24-well type I collagen-coated dish (IWAKI), and cultured to 70-80% confluence in a 10% bovine fetal serum-supplemented DMEM (Gibco/Invitrogen) under the condition of 37° C. and 5% CO2. After replacing with a serum-free medium for half a day, it was further replaced with a serum-free medium with varying concentrations of conjugated linoleic acid (Sigma) (0.001% v/v, 0.01% v/v) or nicotinamide (Sigma) (0.0005% v/v, 0.005% v/v). 24 hours later, RNA was recovered by using RNeasy mini kit (Qiagen) according to Qiagen's protocol. As a control, RNA prepared and recovered by substituting the medium with an intact serum-free medium, and recovering RNA 24 hours later was used. The concentration of the recovered RNA was determined using a nucleic acid quantitation instrument Nanodrop (Thermo Scientific). […]

[2] = test system: sarcoglycan gamma; experiment: Addition of known cellulite-improving drugs to cultured fibroblasts, sarcoglycan gamma expression by quantitative PCR; assay type: cell-based; details: fibroblasts derived from human skin tissue, serum-free medium, 24 hours; conjugated linoleic acid 0.001% and 0.01% v/v, nicotinamide 0.0005% and 0.005% v/v; mRNA vs control
Protocol: as §1, §2

[3] = test system: cellulite; details: applied on the affected cellulite site; Patent Literature 1 and 2, Non-patent Literature 8; cited from earlier work

Row | Compound | expression of fibulin-3 [1] | expression of sarcoglycan gamma [2] | alleviation of cellulite [3]
1 | NC(=O)c1cccnc1 [nicotinamide] | enhanced the expression of fibulin-3 and sarcoglycan in a dose-dependent manner | enhanced the expression of fibulin-3 and sarcoglycan in a dose-dependent manner | alleviate cellulite
2 | conjugated linoleic acid | enhanced the expression of fibulin-3 and sarcoglycan in a dose-dependent manner | enhanced the expression of fibulin-3 and sarcoglycan in a dose-dependent manner | alleviate cellulite
3 | sulfocarbiose | – | – | alleviate cellulite
